Assay results: article PMC10693528, “A high-throughput metabolomics in vitro platform for the characterization of hepatotoxicity” (Cell Biology and Toxicology, 2023)

Tested on: HepG2 cells
Assay: LC-MS/MS targeted intracellular metabolomics
Format: cell-based, human
Details: Suppl Fig 11, C3, 48 h
Protocol: Metabolite profiling of cells was performed directly in the same 96-well plate according to a standardized protocol described below. In order to prevent any interaction with the cell material, the automatic sampler was adjusted to pick up the sample from the supernatant at a specified depth avoiding the contact with the bottom of the plate.
After the initial quenching step (50 μL isopropanol 80%), additional 70 μL of isopropanol 80%, containing internal standards (methionine-D3, tryptophan-D5, arginine-13C6-15N4, Boc-Ala-Gly-Gly-Gly-OH, coenzyme Q1, coenzyme Q2, coenzyme Q4) were added to each well. The internal standards were used for quality control by visual inspection (signal intensity, peak shape, retention time); they were not used for normalization. Afterwards, plates were shaken for 5 min, 750 rpm at 20 °C, and placed for 30 s in the ultrasonic device. Then, the plates were centrifugated for 10 min, at 5485 g, 15 °C. Further, 2.5 μL of the extract were injected each for reversed-phase and hydrophilic interaction liquid chromatography followed by MS/MS detection (AB Sciex QTrap 6500+) using the positive and negative ionization mode. For reverse-phase high-performance liquid chromatography (RP-HPLC, Ascentis Express C18, 5 cm × 2.1 mm, 2.7 μm Supelco), gradient elution was performed with mobile phase A, water/methanol/0.1 M ammonium formate (1:1:0.02, w/w), and B, methyl-tert-butylether/2-propanol/methanol/0.1 M ammonium formate/formic acid (4:2:1:0.07:0.035, w/w) 5.9 min linear gradient: 0 min 100% A, 0.5 min 75% A, 5.9 min 10% A; followed by 0% A until 6.7 min; re-equilibration at 100% A until 7.7 min; flow rate 600 μL/min; column temperature 40 °C HILIC (ZIC-HILIC, 2.1 × 100 mm, 3.5 μm, Supelco) gradient elution was performed with mobile phase C, acetonitrile/water (99:1, v/v) with 0.2% (v) acetic acid, and D, 7 mM ammonium acetate with 0.2% (v) acetic acid (5.0 min linear gradient: 0 min 100% C, 5 min 10% C; followed by a linear gradient back to 100%C until 6.5 min; re-equilibration at 100% C until 7.5 min; flow rate 600 μL/min; column temperature 40 °C.). Two LC-MS systems with identical configuration were used for the analysis. Normalization to lyophilized reference samples (see below) was used to compensate for variation from between analytical batches. The efficiency of this normalization procedure was checked by principal component analysis (PCA), confirming that Pool samples from different analytical batches clustered together.
Reference samples derived from lyophilized untreated HepG2 cells (technical control samples) were measured in parallel throughout the entire analytical process. Data were normalized against the median of these lyophilized HepG2 cells reference samples, to give normalized ratios (performed for each sample per metabolite). This compensated for inter- and intra-instrumental variation. To correct for small differences in cell numbers within and between different treatment groups, data were also normalized to the within sample median, as described in detail by (Ramirez et al. [2018]). For intracellular metabolomic analysis, the median of each sample was calculated across all the 221 measured metabolites.
To generate metabolic profiles for the different treatments, heteroscedastic t test (Welch test) was applied to log-transformed normalized metabolite data to compare treated groups with their respective controls.
Principal component analysis (PCA) and hierarchical clustering (HCA) analyses were performed using R software environment (https://www.r-project.org/). PCA was conducted using the ropls package (Thévenot et al. [2015]) with log10-transformed input data and standard scaling. HCA was performed using the pvclust package (Suzuki et al. [2019]), (https://CRAN.R-project.org/package=pvclust). Input: log10(Ratio), clustering method: Ward D2, distance method: Manhattan, bootstrapping: 10000 times.

CC(=O)N1CCN(c2ccc(OCC3COC(Cn4ccnc4)(c4ccc(Cl)cc4Cl)O3)cc2)CC1 (centres unmarked) [Ketoconazole] was tested, and the “2'-Deoxycytidine level vs controls” value was 0.76, the “5-Hydroxytryptophan level vs controls” value was 0.87 and the “Carnitine level vs controls” value was 0.77. For the same compound, the “Ceramide (d16:1.C24:0) level vs controls” value was 0.48, the “Ceramide (d17:1.C24:0) level vs controls” value was 0.40 and the “Ceramide (d18:1.C16:0) level vs controls” value was 0.74. For the same compound, the “Ceramide (d18:1.C18:0) level vs controls” value was 0.58, the “Ceramide (d18:1.C20:0) level vs controls” value was 0.38 and the “Ceramide (d18:1.C21:0) level vs controls” value was 0.64. The “Ceramide (d18:1.C22:0) level vs controls” value was 0.54, the “Ceramide (d18:1.C23:0) level vs controls” value was 0.50 and the “Ceramide (d18:1.C24:0) level vs controls” value was 0.60. The “Ceramide (d18:1.C24:1) level vs controls” value was 0.70, the “Ceramide (d18:2.C16:0) level vs controls” value was 0.55 and the “Ceramide (d18:2.C18:0) level vs controls” value was 0.38. For the same compound, the “Ceramide (d18:2.C22:0) level vs controls” value was 0.39, the “Ceramide (d18:2.C23:0) level vs controls” value was 0.49 and the “Ceramide (d18:2.C24:0) level vs controls” value was 0.48. For the same compound, the “Ceramide (d18:2.C24:1) level vs controls” value was 0.66, the “Ceramide (d18:2.C24:2) level vs controls” value was 0.36 and the “Cholesterylester (C20:2) level vs controls” value was 0.58. For the same compound, the “Choline plasmalogen (C36:4) level vs controls” value was 1.23, the “Choline plasmalogen (C36:5) level vs controls” value was 1.44 and the “Coenzyme Q10 level vs controls” value was 0.65. For the same compound, the “Glutamate level vs controls” value was 0.92, the “Glutathione (GSH) level vs controls” value was 0.90 and the “Hexadecanoylcarnitine level vs controls” value was 1.97. The “Hexadecenoylcarnitine level vs controls” value was 3.61, the “Isopentenyl pyrophosphate (IPP) level vs controls” value was 0.50 and the “Lysophosphatidylcholine (C14:0) level vs controls” value was 1.21. The “Lysophosphatidylcholine (C16:0) level vs controls” value was 1.96, the “Lysophosphatidylcholine (C16:1) level vs controls” value was 2.67 and the “Lysophosphatidylcholine (C20:0) level vs controls” value was 1.34. For the same compound, the “Lysophosphatidylcholine (C20:1) level vs controls” value was 1.07, the “Lysophosphatidylcholine (C20:4) level vs controls” value was 6.43 and the “Lysophosphatidylcholine (C22:0) level vs controls” value was 1.53. For the same compound, the “Lysophosphatidylcholine (C24:1) level vs controls” value was 2.21, the “Lysophosphatidylethanolamine (C16:0) level vs controls” value was 0.82 and the “Lysophosphatidylethanolamine (C18:0) level vs controls” value was 1.22. For the same compound, the “Lysophosphatidylethanolamine (C20:4) level vs controls” value was 4.71, the “Lysophosphatidylethanolamine (C22:6) level vs controls” value was 4.79 and the “N-Acetylaspartate level vs controls” value was 0.69. For the same compound, the “N-Acetylserine level vs controls” value was 0.84, the “Octadecenoylcarnitine level vs controls” value was 3.35 and the “Pantothenic acid level vs controls” value was 0.85. For the same compound, the “Phosphatidylcholine (C32:0) level vs controls” value was 0.81, the “Phosphatidylcholine (C34:0) level vs controls” value was 0.81 and the “Phosphatidylcholine (C34:1) level vs controls” value was 0.79. The “Phosphatidylcholine (C34:2) level vs controls” value was 0.89, the “Phosphatidylcholine (C34:3) level vs controls” value was 1.19 and the “Phosphatidylcholine (C36:1) level vs controls” value was 0.77. For the same compound, the “Phosphatidylcholine (C36:2) level vs controls” value was 0.64, the “Phosphatidylcholine (C36:3) level vs controls” value was 0.89 and the “Phosphatidylcholine (C36:4) level vs controls” value was 0.67. The “Phosphatidylcholine (C36:5) level vs controls” value was 0.66, the “Phosphatidylcholine (C38:4) level vs controls” value was 1.06 and the “Phosphatidylcholine (C38:6) level vs controls” value was 0.74. The “Phosphatidylcholine (C40:6) level vs controls” value was 1.10, the “Phosphatidylcholine (C40:7) level vs controls” value was 1.16 and the “Phosphatidylcholine (C40:8) level vs controls” value was 1.11. For the same compound, the “Phosphatidylethanolamine (C32:0) level vs controls” value was 0.86, the “Phosphatidylethanolamine (C34:0) level vs controls” value was 0.73 and the “Phosphatidylethanolamine (C34:1) level vs controls” value was 0.82. For the same compound, the “Phosphatidylethanolamine (C36:0) level vs controls” value was 0.70, the “Phosphatidylethanolamine (C36:1) level vs controls” value was 0.78 and the “Phosphatidylethanolamine (C36:2) level vs controls” value was 0.93. For the same compound, the “Phosphatidylethanolamine (C36:4) level vs controls” value was 0.96, the “Phosphatidylethanolamine (C38:3) level vs controls” value was 0.90 and the “Phosphatidylethanolamine (C38:4) level vs controls” value was 1.10. The “Phosphatidylethanolamine (C38:5) level vs controls” value was 1.10, the “Phosphatidylethanolamine (C38:6) level vs controls” value was 0.86 and the “Phosphatidylethanolamine (C40:7) level vs controls” value was 1.09. The “Phosphocholine level vs controls” value was 0.82, the “Pipecolic acid level vs controls” value was 0.86 and the “Proline level vs controls” value was 0.79. The “Pyridoxal level vs controls” value was 0.82, the “S-Adenosylhomocysteine level vs controls” value was 0.69 and the “Sphingomyelin (d32:1) level vs controls” value was 1.49. For the same compound, the “Sphingomyelin (d32:2) level vs controls” value was 1.28, the “Sphingomyelin (d33:1) level vs controls” value was 1.18 and the “Sphingomyelin (d34:0) level vs controls” value was 2.87. The “Sphingomyelin (d34:2) level vs controls” value was 1.31, the “Sphingomyelin (d35:1) level vs controls” value was 1.86 and the “Sphingomyelin (d35:2) level vs controls” value was 1.71. The “Sphingomyelin (d36:1) level vs controls” value was 1.62, the “Sphingomyelin (d36:2) level vs controls” value was 1.45 and the “Sphingomyelin (d36:3) level vs controls” value was 1.48. The “Sphingomyelin (d37:1) level vs controls” value was 1.49, the “Sphingomyelin (d38:1) level vs controls” value was 1.42 and the “Sphingomyelin (d38:2) level vs controls” value was 1.21. The “Sphingomyelin (d39:1) level vs controls” value was 1.79, the “Sphingomyelin (d40:1) level vs controls” value was 1.85 and the “Sphingomyelin (d40:2) level vs controls” value was 1.67. For the same compound, the “Sphingomyelin (d41:1) level vs controls” value was 1.75, the “Sphingomyelin (d41:2) level vs controls” value was 1.88 and the “Sphingomyelin (d42:1) level vs controls” value was 1.54. The “Sphingomyelin (d42:2) level vs controls” value was 1.83, the “Taurine level vs controls” value was 1.32 and the “Tetradecanoylcarnitine level vs controls” value was 2.20. The “Threonine level vs controls” value was 0.85, the “Triacylglycerol (C30:0.C18:1) level vs controls” value was 0.61 and the “Triacylglycerol (C32:0.C16:0) level vs controls” value was 0.23. The “Triacylglycerol (C32:0.C16:1) level vs controls” value was 0.51, the “Triacylglycerol (C34:0.C16:0) level vs controls” value was 0.16 and the “Triacylglycerol (C34:0.C17:0) level vs controls” value was 0.34. For the same compound, the “Triacylglycerol (C34:0.C18:0) level vs controls” value was 0.14, the “Triacylglycerol (C34:0.C18:1) level vs controls” value was 0.31 and the “Triacylglycerol (C34:1.C16:0) level vs controls” value was 0.44. The “Triacylglycerol (C34:1.C18:1) level vs controls” value was 0.83, the “Triacylglycerol (C34:1.C18:3) level vs controls” value was 1.33 and the “Triacylglycerol (C34:2.C18:0) level vs controls” value was 0.68. The “Triacylglycerol (C34:2.C18:1) level vs controls” value was 1.31, the “Triacylglycerol (C36:1.C18:0) level vs controls” value was 0.27 and the “Triacylglycerol (C36:1.C18:1) level vs controls” value was 0.61. For the same compound, the “Triacylglycerol (C36:2.C18:1) level vs controls” value was 1.14, the “Triacylglycerol (C36:3.C18:1) level vs controls” value was 1.57 and the “Triacylglycerol (C36:3.C18:2) level vs controls” value was 2.03. The “Triacylglycerol (C36:4.C16:0) level vs controls” value was 1.15, the “Triacylglycerol (C36:4.C18:0) level vs controls” value was 1.19 and the “myo-Inositol-2-phosphate level vs controls” value was 0.50. For the same compound, the “Sphingomyelin (d34:1) level vs controls” value (first of two lines with this name) was 1.40 and the “Sphingomyelin (d34:1) level vs controls” value (second of two lines with this name) was 1.16.
